From article PMC8708872, “Discovery of a Novel Template, 7-Substituted 7-Deaza-4′-Thioadenosine Derivatives as Multi-Kinase Inhibitors” (Pharmaceuticals, 2021)

Legend:
Test in all cases: Kinome scan
Assay type in all cases: binding
BRAF = target: T1, BRAF (Homo sapiens, UniProt P15056); settings: 1000 nM
T1 construct: purchased Eurofins DiscoverX Corporation
Method: (§1) The kinome scan assays were carried out at Eurofins DiscoverX Corporation. For kinome scan profiling of compound 1g, it was screened at 1μM against 96 kinases (N = 2 independent experiments). The results for binding interactions are reported as % inhibition, where higher values indicate strong affinity; see the Supporting Information, Table S1 for full kinome profile.

IKK-beta = target: T2, IKK-beta (Homo sapiens, UniProt O14920); settings: 1000 nM
T2 construct: purchased Eurofins DiscoverX Corporation
Method: as §1

DCAMKL1 = target: T3, DCAMKL1 (Homo sapiens, UniProt O15075); settings: 1000 nM
T3 construct: purchased Eurofins DiscoverX Corporation
Method: as §1

AURKB = target: T4, AURKB (Homo sapiens, UniProt Q96GD4); settings: 1000 nM
T4 construct: purchased Eurofins DiscoverX Corporation
Method: as §1

AKT1 = target: T5, AKT1 (Homo sapiens, UniProt P31749); settings: 1000 nM
T5 construct: purchased Eurofins DiscoverX Corporation
Method: as §1

[1] = target: T6, JAK3(JH1domain-catalytic) (Homo sapiens, UniProt P52333); settings: 1000 nM
T6 construct: JAK3(JH1domain-catalytic); purchased Eurofins DiscoverX Corporation
Method: as §1

CDK2 = target: T7, CDK2 (Homo sapiens, UniProt P24941); settings: 1000 nM
T7 construct: purchased Eurofins DiscoverX Corporation
Method: as §1

PLK4 = target: T8, PLK4 (Homo sapiens, UniProt O00444); settings: 1000 nM
T8 construct: purchased Eurofins DiscoverX Corporation
Method: as §1

PAK4 = target: T9, PAK4 (Homo sapiens, UniProt O96013); settings: 1000 nM
T9 construct: purchased Eurofins DiscoverX Corporation
T9 sequence (O96013 whole entry): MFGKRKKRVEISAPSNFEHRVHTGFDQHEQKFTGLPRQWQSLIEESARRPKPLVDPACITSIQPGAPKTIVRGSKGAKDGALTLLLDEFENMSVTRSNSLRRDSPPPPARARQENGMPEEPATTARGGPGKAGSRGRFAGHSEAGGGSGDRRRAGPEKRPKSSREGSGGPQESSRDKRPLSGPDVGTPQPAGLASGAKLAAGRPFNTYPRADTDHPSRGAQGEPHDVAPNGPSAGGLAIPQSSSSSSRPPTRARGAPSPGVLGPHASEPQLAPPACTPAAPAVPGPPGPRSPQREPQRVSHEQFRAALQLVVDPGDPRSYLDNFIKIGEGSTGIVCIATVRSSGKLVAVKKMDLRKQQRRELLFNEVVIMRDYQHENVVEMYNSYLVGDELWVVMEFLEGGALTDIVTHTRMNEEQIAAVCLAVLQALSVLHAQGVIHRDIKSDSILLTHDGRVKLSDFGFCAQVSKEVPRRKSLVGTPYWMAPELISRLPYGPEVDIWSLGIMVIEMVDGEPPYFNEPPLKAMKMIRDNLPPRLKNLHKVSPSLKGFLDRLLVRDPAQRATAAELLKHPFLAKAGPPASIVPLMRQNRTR
Method: as §1

[2] = target: T10, ABL1(T315I)-phosphorylated (Homo sapiens, UniProt P00519, T315I); settings: 1000 nM
T10 construct: purchased Eurofins DiscoverX Corporation
Method: as §1

ERBB4 = target: T11, ERBB4 (Homo sapiens, UniProt Q15303); settings: 1000 nM
T11 construct: purchased Eurofins DiscoverX Corporation
Method: as §1

TGFBR1 = target: T12, TGFBR1 (Homo sapiens, UniProt P36897); settings: 1000 nM
T12 construct: purchased Eurofins DiscoverX Corporation
T12 sequence (P36897 34-503): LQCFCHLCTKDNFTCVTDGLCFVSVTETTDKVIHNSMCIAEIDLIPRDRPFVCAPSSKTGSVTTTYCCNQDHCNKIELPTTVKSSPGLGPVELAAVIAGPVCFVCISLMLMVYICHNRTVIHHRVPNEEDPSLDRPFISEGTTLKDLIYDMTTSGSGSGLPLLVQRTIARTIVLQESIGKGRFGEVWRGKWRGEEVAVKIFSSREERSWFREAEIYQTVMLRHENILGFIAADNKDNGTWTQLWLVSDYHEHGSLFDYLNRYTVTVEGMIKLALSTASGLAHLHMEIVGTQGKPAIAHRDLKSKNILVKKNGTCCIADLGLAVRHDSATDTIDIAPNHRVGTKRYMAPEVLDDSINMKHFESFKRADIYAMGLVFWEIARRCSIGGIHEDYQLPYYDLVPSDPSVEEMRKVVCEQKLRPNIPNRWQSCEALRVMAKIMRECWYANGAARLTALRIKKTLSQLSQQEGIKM
Method: as §1

IKK-alpha = target: T13, IKK-alpha (Homo sapiens, UniProt O15111); settings: 1000 nM
T13 construct: purchased Eurofins DiscoverX Corporation
Method: as §1

FGFR2 = target: T14, FGFR2 (Homo sapiens, UniProt P21802); settings: 1000 nM
T14 construct: purchased Eurofins DiscoverX Corporation
Method: as §1

DYRK1B = target: T15, DYRK1B (Homo sapiens, UniProt Q9Y463)
T15 construct: purchased Eurofins DiscoverX Corporation
T15 sequence (Q9Y463 whole entry): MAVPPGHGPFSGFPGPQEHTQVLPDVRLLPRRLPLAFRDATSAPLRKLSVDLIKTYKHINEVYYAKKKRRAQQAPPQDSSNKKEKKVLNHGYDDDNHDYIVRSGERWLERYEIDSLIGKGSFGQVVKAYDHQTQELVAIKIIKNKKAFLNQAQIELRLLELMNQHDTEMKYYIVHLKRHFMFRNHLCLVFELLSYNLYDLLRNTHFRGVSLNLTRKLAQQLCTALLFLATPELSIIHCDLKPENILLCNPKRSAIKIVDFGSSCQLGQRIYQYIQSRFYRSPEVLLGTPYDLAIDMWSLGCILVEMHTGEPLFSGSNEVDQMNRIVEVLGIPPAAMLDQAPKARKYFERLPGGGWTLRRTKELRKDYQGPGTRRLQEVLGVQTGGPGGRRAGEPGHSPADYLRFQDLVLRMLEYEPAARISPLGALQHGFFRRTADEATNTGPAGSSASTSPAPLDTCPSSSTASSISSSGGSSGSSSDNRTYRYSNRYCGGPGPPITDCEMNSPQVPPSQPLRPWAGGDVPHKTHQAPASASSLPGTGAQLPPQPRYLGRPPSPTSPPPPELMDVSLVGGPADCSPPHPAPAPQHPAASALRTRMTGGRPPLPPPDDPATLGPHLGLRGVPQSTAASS
Method: as §1

PIM3 = target: T16, PIM3 (Homo sapiens, UniProt Q86V86); settings: 1000 nM
T16 construct: purchased Eurofins DiscoverX Corporation
Method: as §1

PDGFRB = target: T17, PDGFRB (Homo sapiens, UniProt P09619); settings: 1000 nM
T17 construct: purchased Eurofins DiscoverX Corporation
Method: as §1

MKNK2 = target: T18, MKNK2 (Homo sapiens, UniProt Q9HBH9); settings: 1000 nM
T18 construct: purchased Eurofins DiscoverX Corporation
Method: as §1

JNK3 = target: T19, JNK3 (Homo sapiens, UniProt P53779); settings: 1000 nM
T19 construct: purchased Eurofins DiscoverX Corporation
Method: as §1

MAPKAPK2 = target: T20, MAPKAPK2 (Homo sapiens, UniProt P49137); settings: 1000 nM
T20 construct: purchased Eurofins DiscoverX Corporation
Method: as §1

CDK9 = target: T21, CDK9 (Homo sapiens, UniProt P50750); settings: 1000 nM
T21 construct: purchased Eurofins DiscoverX Corporation
Method: as §1

LKB1 = target: T22, LKB1 (Homo sapiens, UniProt Q15831); settings: 1000 nM
T22 construct: purchased Eurofins DiscoverX Corporation
Method: as §1

FAK = target: T23, FAK (Homo sapiens, UniProt Q05397); settings: 1000 nM
T23 construct: purchased Eurofins DiscoverX Corporation
Method: as §1

RET = target: T24, RET (Homo sapiens, UniProt P07949); settings: 1000 nM
T24 construct: purchased Eurofins DiscoverX Corporation
Method: as §1

CDK3 = target: T25, CDK3 (Homo sapiens, UniProt Q00526); settings: 1000 nM
T25 construct: purchased Eurofins DiscoverX Corporation
Method: as §1

BMPR2 = target: T26, BMPR2 (Homo sapiens, UniProt Q13873); settings: 1000 nM
T26 construct: purchased Eurofins DiscoverX Corporation
T26 sequence (Q13873 27-1038): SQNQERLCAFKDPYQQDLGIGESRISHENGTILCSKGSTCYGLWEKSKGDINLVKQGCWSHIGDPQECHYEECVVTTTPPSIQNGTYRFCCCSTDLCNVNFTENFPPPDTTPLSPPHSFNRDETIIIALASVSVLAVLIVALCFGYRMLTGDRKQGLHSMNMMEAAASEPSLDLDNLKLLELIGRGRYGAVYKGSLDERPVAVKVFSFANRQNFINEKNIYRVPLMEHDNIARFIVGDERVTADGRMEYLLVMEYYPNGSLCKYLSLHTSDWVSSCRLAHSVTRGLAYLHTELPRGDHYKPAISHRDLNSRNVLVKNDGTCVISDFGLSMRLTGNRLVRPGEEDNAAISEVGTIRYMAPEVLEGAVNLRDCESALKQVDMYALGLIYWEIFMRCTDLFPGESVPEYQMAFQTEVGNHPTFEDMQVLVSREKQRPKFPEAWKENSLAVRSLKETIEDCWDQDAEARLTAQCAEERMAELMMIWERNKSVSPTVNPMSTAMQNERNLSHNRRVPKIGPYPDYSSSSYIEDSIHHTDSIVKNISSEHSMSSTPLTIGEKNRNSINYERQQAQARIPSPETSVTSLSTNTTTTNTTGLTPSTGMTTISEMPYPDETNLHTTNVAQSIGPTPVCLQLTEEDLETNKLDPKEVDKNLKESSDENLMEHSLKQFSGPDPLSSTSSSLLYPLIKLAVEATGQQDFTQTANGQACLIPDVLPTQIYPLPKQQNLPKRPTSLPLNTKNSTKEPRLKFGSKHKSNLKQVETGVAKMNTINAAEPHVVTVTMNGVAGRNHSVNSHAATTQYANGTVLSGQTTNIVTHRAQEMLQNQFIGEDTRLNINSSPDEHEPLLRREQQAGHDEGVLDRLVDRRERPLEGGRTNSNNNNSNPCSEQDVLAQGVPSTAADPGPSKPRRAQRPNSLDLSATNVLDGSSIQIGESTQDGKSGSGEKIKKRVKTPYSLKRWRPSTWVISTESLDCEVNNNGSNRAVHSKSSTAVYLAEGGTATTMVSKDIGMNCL
Method: as §1

ACVR1B = target: T27, ACVR1B (Homo sapiens, UniProt P36896); settings: 1000 nM
T27 construct: purchased Eurofins DiscoverX Corporation
Method: as §1

p38-alpha = target: T28, p38-alpha (Homo sapiens, UniProt Q16539); settings: 1000 nM
T28 construct: purchased Eurofins DiscoverX Corporation
Method: as §1

TSSK1B = target: T29, TSSK1B (Homo sapiens, UniProt Q9BXA7); settings: 1000 nM
T29 construct: purchased Eurofins DiscoverX Corporation
T29 sequence (Q9BXA7 whole entry): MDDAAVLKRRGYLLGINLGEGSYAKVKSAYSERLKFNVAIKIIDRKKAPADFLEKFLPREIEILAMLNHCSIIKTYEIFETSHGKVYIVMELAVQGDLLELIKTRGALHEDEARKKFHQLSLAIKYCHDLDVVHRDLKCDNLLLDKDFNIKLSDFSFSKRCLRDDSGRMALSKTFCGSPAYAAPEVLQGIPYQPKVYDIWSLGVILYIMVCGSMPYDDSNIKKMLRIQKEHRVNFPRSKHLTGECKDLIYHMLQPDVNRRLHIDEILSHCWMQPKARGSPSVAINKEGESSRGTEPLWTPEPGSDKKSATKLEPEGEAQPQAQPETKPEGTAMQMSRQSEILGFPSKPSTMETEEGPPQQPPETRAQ
Method: as §1

MET = target: T30, MET (Homo sapiens, UniProt P08581); settings: 1000 nM
T30 construct: purchased Eurofins DiscoverX Corporation
Method: as §1

CDK7 = target: T31, CDK7 (Homo sapiens, UniProt P50613); settings: 1000 nM
T31 construct: purchased Eurofins DiscoverX Corporation
Method: as §1

RAF1 = target: T32, RAF1 (Homo sapiens, UniProt P04049); settings: 1000 nM
T32 construct: purchased Eurofins DiscoverX Corporation
Method: as §1

TRKA (NTRK1) = target: T33, TRKA (NTRK1) (Homo sapiens, UniProt P04629)
T33 construct: purchased Eurofins DiscoverX Corporation
T33 sequence (P04629 33-796): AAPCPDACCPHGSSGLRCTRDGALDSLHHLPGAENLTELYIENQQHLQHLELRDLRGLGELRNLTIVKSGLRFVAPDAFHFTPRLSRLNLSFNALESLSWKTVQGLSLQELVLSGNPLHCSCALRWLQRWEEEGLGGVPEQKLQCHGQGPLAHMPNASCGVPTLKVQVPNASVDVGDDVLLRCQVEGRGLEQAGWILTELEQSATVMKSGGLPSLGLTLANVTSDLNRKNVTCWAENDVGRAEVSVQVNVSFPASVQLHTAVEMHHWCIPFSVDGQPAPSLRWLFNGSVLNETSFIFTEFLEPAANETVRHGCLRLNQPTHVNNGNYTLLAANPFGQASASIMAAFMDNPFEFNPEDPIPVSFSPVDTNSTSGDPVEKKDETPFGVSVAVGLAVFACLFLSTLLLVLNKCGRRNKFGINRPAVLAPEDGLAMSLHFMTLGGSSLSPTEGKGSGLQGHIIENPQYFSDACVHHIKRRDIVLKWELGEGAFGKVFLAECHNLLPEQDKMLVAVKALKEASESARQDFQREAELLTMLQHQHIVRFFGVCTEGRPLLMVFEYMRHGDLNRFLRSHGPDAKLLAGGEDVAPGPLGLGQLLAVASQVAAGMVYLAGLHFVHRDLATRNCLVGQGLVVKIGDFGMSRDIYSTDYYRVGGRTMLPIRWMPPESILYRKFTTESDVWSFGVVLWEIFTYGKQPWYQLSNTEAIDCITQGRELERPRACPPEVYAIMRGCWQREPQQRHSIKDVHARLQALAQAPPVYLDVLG
Method: as §1

SRPK3 = target: T34, SRPK3 (Homo sapiens, UniProt Q9UPE1); settings: 1000 nM
T34 construct: purchased Eurofins DiscoverX Corporation
Method: as §1

FLT3 = target: T35, FLT3 (Homo sapiens, UniProt P36888); settings: 1000 nM
T35 construct: purchased Eurofins DiscoverX Corporation
Method: as §1

ABL1-nonphosphorylated = target: T36, ABL1-nonphosphorylated (Homo sapiens, UniProt P00519); settings: 1000 nM
T36 construct: purchased Eurofins DiscoverX Corporation
Method: as §1

JNK2 = target: T37, JNK2 (Homo sapiens, UniProt P45984); settings: 1000 nM
T37 construct: purchased Eurofins DiscoverX Corporation
Method: as §1

MLK1 = target: T38, MLK1 (Homo sapiens, UniProt P80192); settings: 1000 nM
T38 construct: purchased Eurofins DiscoverX Corporation
Method: as §1

PLK3 = target: T39, PLK3 (Homo sapiens, UniProt Q9H4B4); settings: 1000 nM
T39 construct: purchased Eurofins DiscoverX Corporation
Method: as §1

PCTK1 = target: T40, PCTK1 (Homo sapiens, UniProt Q00536); settings: 1000 nM
T40 construct: purchased Eurofins DiscoverX Corporation
Method: as §1

PAK1 = target: T41, PAK1 (Homo sapiens, UniProt Q13153); settings: 1000 nM
T41 construct: purchased Eurofins DiscoverX Corporation
Method: as §1

KIT(D816V) = target: T42, KIT(D816V) (Homo sapiens, UniProt P10721, D816V); settings: 1000 nM
T42 construct: purchased Eurofins DiscoverX Corporation
Method: as §1

T1 sequence (P15056 whole entry): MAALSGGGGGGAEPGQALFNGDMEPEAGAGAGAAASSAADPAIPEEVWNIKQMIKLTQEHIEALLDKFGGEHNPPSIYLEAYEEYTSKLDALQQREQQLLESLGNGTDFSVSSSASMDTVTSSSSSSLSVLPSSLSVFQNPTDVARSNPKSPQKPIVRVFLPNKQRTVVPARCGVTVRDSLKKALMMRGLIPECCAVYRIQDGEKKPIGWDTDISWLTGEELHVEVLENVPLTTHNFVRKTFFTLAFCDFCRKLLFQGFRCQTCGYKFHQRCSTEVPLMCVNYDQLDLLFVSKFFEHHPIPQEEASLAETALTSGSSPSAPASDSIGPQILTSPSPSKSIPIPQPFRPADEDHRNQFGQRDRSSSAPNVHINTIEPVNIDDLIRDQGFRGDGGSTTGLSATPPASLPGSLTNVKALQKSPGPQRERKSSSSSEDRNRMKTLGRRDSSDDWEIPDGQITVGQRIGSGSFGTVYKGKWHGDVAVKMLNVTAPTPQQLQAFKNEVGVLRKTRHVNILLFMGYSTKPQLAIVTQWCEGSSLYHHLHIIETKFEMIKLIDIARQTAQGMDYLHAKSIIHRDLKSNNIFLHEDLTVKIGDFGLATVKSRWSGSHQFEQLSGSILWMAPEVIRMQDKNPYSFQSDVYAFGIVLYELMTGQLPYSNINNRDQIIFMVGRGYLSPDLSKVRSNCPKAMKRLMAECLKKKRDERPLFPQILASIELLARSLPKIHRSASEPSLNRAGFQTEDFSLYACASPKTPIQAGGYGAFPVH

In the case of `C#Cc1cn([C@@H]2S[C@H](CO)[C@@H](O)[C@H]2O)c2ncnc(N)c12` [Compound 1g, (2R,3R,4S,5R)-2-(4-Amino-5-ethynyl-7H-pyrrolo[2,3-d]pyrimidin-7-yl)-5-(hydroxymethyl)tetrahydrothiophene-3,4-diol], the inhibition at 1 µM (BRAF) is reported as 0%, the inhibition at 1 µM (IKK-beta) is reported as 0% and the inhibition at 1 µM (DCAMKL1) is reported as 6%. The inhibition at 1 µM (AURKB) was 0%, the inhibition at 1 µM (AKT1) was 7% and the inhibition at 1 µM [1] was 0%. For the same molecule, the inhibition at 1 µM (CDK2) was 9%, the inhibition at 1 µM (PLK4) was 0% and the inhibition at 1 µM (PAK4) was 50%. It also gave an inhibition at 1 µM [2] of 65%, an inhibition at 1 µM (ERBB4) of 3% and an inhibition at 1 µM (TGFBR1) of 11%. For the same molecule, the inhibition at 1 µM (IKK-alpha) was 10%, the inhibition at 1 µM (FGFR2) was 12% and the remaining binding at 1 µM (DYRK1B; 1 μM) was less than 20%. For the same molecule, the inhibition at 1 µM (DYRK1B; 1000 nM, DYRK1B) was 83%, the inhibition at 1 µM (PIM3) was 25% and the inhibition at 1 µM (PDGFRB) was 8%. It also gave an inhibition at 1 µM (MKNK2) of 62%, an inhibition at 1 µM (JNK3) of 13% and an inhibition at 1 µM (MAPKAPK2) of 0%. It also gave an inhibition at 1 µM (CDK9) of 4%, an inhibition at 1 µM (LKB1) of 2% and an inhibition at 1 µM (FAK) of 0%. The inhibition at 1 µM (RET) was 11%, the inhibition at 1 µM (CDK3) was 18% and the inhibition at 1 µM (BMPR2) was 1%. The inhibition at 1 µM (ACVR1B) was 29%, the inhibition at 1 µM (p38-alpha) was 11% and the inhibition at 1 µM (TSSK1B) was 16%. It also gave an inhibition at 1 µM (MET) of 4%, an inhibition at 1 µM (CDK7) of 52.3% and an inhibition at 1 µM (RAF1) of 8%. For the same molecule, the remaining binding at 1 µM (TRKA (NTRK1); 1 μM) was less than 20%, the inhibition at 1 µM (TRKA (NTRK1); 1000 nM, TRKA (NTRK1)) was 95.1% and the inhibition at 1 µM (SRPK3) was 6%. For the same molecule, the inhibition at 1 µM (FLT3) was 27%, the inhibition at 1 µM (ABL1-nonphosphorylated) was 39% and the inhibition at 1 µM (JNK2) was 0%. It also gave an inhibition at 1 µM (MLK1) of 7%, an inhibition at 1 µM (PLK3) of 0% and an inhibition at 1 µM (PCTK1) of 0%. For the same molecule, the inhibition at 1 µM (PAK1) was 18% and the inhibition at 1 µM (KIT(D816V)) was 22%.
